In paper PMC5668088, “A phase I clinical trial of binimetinib in combination with FOLFOX in patients with advanced metastatic colorectal cancer who failed prior standard therapy” (Oncotarget, 2017):
Like-named read-outs stand apart in the source and are kept apart here.

Key:
[1] = for Oxaliplatin T1/2, Avg STD: Table 4
[2] = human, in vivo, po
Protocol: A standard 3 + 3 dose-escalation design was followed using a continuous and intermittent oral binimetinib dosing schedule combined with fixed-dose FOLFOX. […] The continuous binimetinib dosing schedule was comprised of 2 dosing levels: 30 mg orally twice daily and 45 mg orally twice daily continuously starting on day 1 with FOLFOX, repeated every 2 weeks. The MTD of binimetinib continuous daily dosing was explored in an additional 6-patient cohort to investigate potential FOLFOX-binimetinib pharmacokinetic interactions. In addition, the MTD dose of binimetinib was explored further with FOLFOX in an intermittent sequential schedule in order to minimize treatment toxicity, with binimetinib twice daily on days 1–5 with FOLFOX on days 6–7 every 2 weeks. The starting dose of binimetinib on the intermittent arm was the MTD dose level identified on the continuous dosing schedule. Following standard dose-escalation rules, the maximum tolerated dose (MTD) for either schedule was defined as the highest dose level tested in which no more than 1 of 6 patients experienced a dose-limiting toxicity (DLT) in the dose-escalation phase. […] No intra-patient dosing escalations were allowed. No escalation beyond the previous binimetinib monotherapy recommended dose of 45 mg PO BID was allowed. […]

MEK1/2 = details: preclinical; cited from earlier work
[3] = parameters: method as in ref 19–24 = [19]; 19 Sosman JA Kittaneh M Lolkema MP Postow MA Schwartz G Franklin C Matano A Bhansali S Parasuraman S Kim K A phase 1b/2 study of LEE011 in combination with binimetinib (MEK162) in patients with NRAS-m || [20]; 20 Juric D Soria JC Sharma S Banerji U Azaro A Desai J A phase Ib open-label, multicenter, dose-escalation and-expansion study of orally administered binimetinib (MEK162) plus BYL719 in adult patients || [21]; 21 Chi P Qin L D’Angelo SP Dickson MA Gounder MM Keohan ML Shoushtari AN Condy MM Konen T Fruauff A DeMatteo RP Singer S Hwang S A phase Ib/II study of MEK162 (binimetinib [BINI]) in combination with || [22]; 22 Van Herpen C Postow MA Carlino MS Kalkavan H Weise A Amaria RN De Vos F Carvajal RD Matano A Bhansali S Lam L Yerramilli-Rao P Sosman JA A phase 1b/2 study of ribociclib (LEE011; CDK4/6 inhibitor) || [23]; 23 Dummer R Sandhu S Hassel JC Muñoz E Berking C Gesierich A Ascierto PA Esposito O Carter K Antona V Radhakrishnan R Cui X Caponigro G LOGIC2: Phase 2,multi-center, open-label study of sequential enc; details: oral twice daily, continuous dosing; five phase Ib/II trials; cited from earlier work
[4] = parameters: method as in ref 25 = [25]; 25 Grisham RN Gordon MS Harb WA Aghajanian C McMeekin DS McKinley K Anderson L Chavira R Christy-Bittel J Barrett E Moore KN A phase Ib dose-escalation study of binimetinib (MEK162) in combination wit; details: orally twice daily, cited from earlier work
advanced solid tumors = details: twice daily, cited from earlier work
[5] = cited from earlier work
previously-treated mCRC = tested on: previously-treated mCRC; parameters: method as in ref 34 = [34]; 34 Bendell J Won KT Ean CC Yung-Jue B Lee C Desai J Lewin J Wallin J Das Thakur M Mwawasi G Cha E Infante J Safety and efficacy of cobimetinib (cobi) and atezolizumab (atezo) in a Phase 1b study of me; details: escalating doses of cobimetinib in combination with atezolizumab; 23 patients (4 responders); cited from earlier work
[6] = 5-FU plasma pharmacokinetics without and with binimetinib (LC-MS/MS)
Protocol: Fluorouracil levels in plasma were determined using an LC-MS/MS analytical assay also in the APCF with LLOQ of 3 ng/mL from a 200 μL aliquot of plasma.

[7] = Pt#1, Cycle 1 (without binimetinib)
[8] = Pt#2, Cycle 1 (without binimetinib)
[9] = Pt#2, Cycle 2 (with binimetinib)
[10] = Pt#3, Cycle 1 (without binimetinib)
[11] = Pt#3, Cycle 2 (with binimetinib)
[12] = Pt#4, Cycle 1 (without binimetinib)
[13] = Pt#4, Cycle 2 (with binimetinib)
[14] = Pt#5, Cycle 1 (without binimetinib)
[15] = Pt#5, Cycle 2 (with binimetinib)
[16] = Pt#6, Cycle 2 (with binimetinib)

SMILES: O=C1[O][Pt]2([NH][C@@H]3CCCC[C@H]3[NH]2)[O]C1=O [Oxaliplatin]
- Oxaliplatin AUC, Avg STD ([1]; Cycle 1 (without binimetinib)): 26580.5 4844.8 μg/L X hr
- Oxaliplatin T1/2, Avg STD ([1]; Cycle 1 (without binimetinib)): 37.1 11.7 36
- Oxaliplatin AUC, Avg STD ([1]; Cycle 1 (without binimetinib), listed as oxaliplatin): 26580.5 ± 4844.8 μg/L X hr
- Oxaliplatin AUC, Avg STD ([1]; Cycle 2 (with binimetinib)): 32190.9 11861.2 μg/L X hr
- Oxaliplatin T1/2, Avg STD ([1]; Cycle 2 (with binimetinib)): 38.8 22.6 36
- Oxaliplatin AUC, Avg STD ([1]; Cycle 2 (with binimetinib), listed as oxaliplatin): 32190.9 ± 11861.2 μg/L X hr
- Oxaliplatin AUC [1, 7]: 28618.0 μg/L X hr
- Oxaliplatin Cmax [1, 7]: 536.0 ng/mL
- Oxaliplatin AUC [1, 8]: 31146.9 μg/L X hr
- Oxaliplatin Cmax [1, 8]: 780.8 ng/mL
- Oxaliplatin AUC [1, 9]: 51036.0 μg/L X hr
- Oxaliplatin Cmax [1, 9]: 590.0 ng/mL
- Oxaliplatin AUC [1, 10]: 25757.7 μg/L X hr
- Oxaliplatin Cmax [1, 10]: 686.5 ng/mL
- Oxaliplatin AUC [1, 11]: 33953.4 μg/L X hr
- Oxaliplatin Cmax [1, 11]: 726.5 ng/mL
- Oxaliplatin AUC [1, 12]: 18615.5 μg/L X hr
- Oxaliplatin Cmax [1, 12]: 601.5 ng/mL
- Oxaliplatin AUC [1, 13]: 25138.7 μg/L X hr
- Oxaliplatin Cmax [1, 13]: 748.5 ng/mL
- Oxaliplatin AUC [1, 14]: 28764.2 μg/L X hr
- Oxaliplatin Cmax [1, 14]: 389.3 ng/mL
- Oxaliplatin AUC [1, 15]: 19805.3 μg/L X hr
- Oxaliplatin Cmax [1, 15]: 583.5 ng/mL
- Oxaliplatin AUC [1, 16]: 31020.9 μg/L X hr
- Oxaliplatin Cmax [1, 16]: 671.0 ng/mL
- Oxaliplatin average T1/2 ([1]; with binimetinib): 38.8 ± 22.6 h
- Oxaliplatin average T1/2 ([1]; without binimetinib): 37.1 ± 11.7 h

SMILES: Cn1cnc2c(F)c(Nc3ccc(Br)cc3F)c(C(=O)NOCCO)cc21 [binimetinib]
- MTD of binimetinib in combination with FOLFOX [2]: 45 mg
- Inhibition of MEK and downstream phosphorylated ERK (pERK) (MEK1/2): nanomolar range
- MTD or RP2D of binimetinib in combination with various targeted agents [3]: 45 mg
- RP2D of binimetinib combined with paclitaxel ([4]; continuous dosing, paclitaxel 80 mg/m^2 weekly 3 out of 4 weeks): 30 mg
- RP2D of binimetinib combined with paclitaxel ([4]; intermittent dosing (days 1–5 weekly for 3 out of 4 weeks)): 45 mg
- Recommended phase II dose (RP2D) of oral binimetinib (advanced solid tumors; due to recurrent DLTs of retinal events): 45 mg
- MTD of single-agent oral binimetinib (advanced solid tumors; pretreated advanced solid tumors, first dose-escalation phase I study): 60 mg
- Patients with atrial fibrillation ([5]; in vivo): 1
- Patients with irregular heart rate ([5]; in vivo): 1
- Patients with grade 1–2 retinal adverse events ([5]; phase II trial, binimetinib 45 mg twice daily, NRAS- or BRAF-mutated advanced melanomas): 18%

SMILES: O=C(c1ccc(F)c(F)c1Nc1ccc(I)cc1F)N1CC(O)([C@@H]2CCCCN2)C1 [cobimetinib]
- Partial responses (previously-treated mCRC): 17%

SMILES: O=c1[nH]cc(F)c(=O)[nH]1 [5-FU, Fluorouracil]
- 5-FU steady-state level, Avg STD ([6]; Cycle 2 (with binimetinib 45 mg BID continuous), plasma, PK cohort): 597.6 ± 204.5 ng/mL
- 5-FU steady-state level [6, 7]: 353.0 ng/mL
- 5-FU steady-state level ([6]; Pt#1, Cycle 2 (with binimetinib)): 293.1 ng/mL
- 5-FU steady-state level [6, 8]: 524.0 ng/mL
- 5-FU steady-state level [6, 9]: 480.5 ng/mL
- 5-FU steady-state level [6, 10]: 627.5 ng/mL
- 5-FU steady-state level [6, 11]: 718.0 ng/mL
- 5-FU steady-state level [6, 12]: 427.5 ng/mL
- 5-FU steady-state level [6, 13]: 770.5 ng/mL
- 5-FU steady-state level [6, 14]: 621.0 ng/mL
- 5-FU steady-state level [6, 15]: 726.0 ng/mL
- 5-FU steady-state level ([6]; Pt#6, Cycle 1 (without binimetinib)): 428.0 ng/mL
- Difference in 5-FU PK with vs without binimetinib ([6]; in vivo): no significant differences
